Converted amounts (≈) assume the structure as drawn.
Key:
Assay type in all cases: functional
[1] = (§1) Antimicrobial activity against Francisella tularensis subsp. tularensis after 48 hrs by broth microdilution method
[2] = (§2) Antimicrobial activity against Francisella tularensis subsp. holarctica after 48 hrs by broth microdilution method
[3] = Antimicrobial activity against Francisella tularensis subsp. holarctica LVS after 48 hrs by broth microdilution method
[4] = test system: Francisella tularensis subsp. tularensis; test: as §1
[5] = test system: Francisella tularensis subsp. holarctica; test: as §2

Molecule | MIC50 [1] [µg/mL] | MIC90 [1] [µg/mL] | MIC50 [2] [µg/mL] | MIC90 [2] [µg/mL] | MIC [1] [µg/mL] | MIC [3] [µg/mL] | MIC50 [4] [µg/mL] | MIC90 [4] [µg/mL] | MIC50 [5] [µg/mL] | MIC90 [5] [µg/mL]
O=C(N[C@H](CO)[C@H](O)c1ccc([N+](=O)[O-])cc1)C(Cl)Cl [CHLORAMPHENICOL] | 1 (≈ 3.09 µM) | 2 (≈ 6.19 µM) | 2 (≈ 6.19 µM) | 2 (≈ 6.19 µM) | – | – | – | – | – | –
O=C(O)c1cn(C2CC2)c2cc(N3CCNCC3)c(F)cc2c1=O [CIPROFLOXACIN] | 0.015 (≈ 0.0453 µM) | 0.03 (≈ 0.0905 µM) | 0.03 (≈ 0.0905 µM) | 0.06 (≈ 0.181 µM) | – | – | – | – | – | –
C[C@H]1c2cccc(O)c2C(=O)C2=C(O)[C@]3(O)C(=O)C(C(N)=O)=C(O)[C@@H](N(C)C)[C@@H]3[C@@H](O)[C@@H]21.O [DOXYCYCLINE] | 0.5 | 1 | 1 | 2 | – | – | – | – | – | –
CC[C@H]1OC(=O)[C@H](C)[C@@H](O[C@H]2C[C@@](C)(OC)[C@@H](O)[C@H](C)O2)[C@H](C)[C@@H](O[C@@H]2O[C@H](C)C[C@H](N(C)C)[C@H]2O)[C@](C)(O)C[C@@H](C)C(=O)[C@H](C)[C@@H](O)[C@]1(C)O [ERYTHROMYCIN] | 0.5 (≈ 0.681 µM) | 0.5 (≈ 0.681 µM) | 2 (≈ 2.73 µM) | 2 (≈ 2.73 µM) | 0.5 (≈ 0.681 µM) | > 256 | – | – | – | –
C[C@H]1COc2c(N3CCN(C)CC3)c(F)cc3c(=O)c(C(=O)O)cn1c23.C[C@H]1COc2c(N3CCN(C)CC3)c(F)cc3c(=O)c(C(=O)O)cn1c23.O [LEVOFLOXACIN] | 0.03 | 0.06 | 0.03 | 0.06 | – | – | – | – | – | –
CN[C@@H]1[C@H](O[C@H]2[C@H](O[C@H]3[C@H](O)[C@@H](O)[C@H](N=C(N)N)[C@@H](O)[C@@H]3N=C(N)N)O[C@@H](C)[C@]2(O)C=O)O[C@@H](CO)[C@H](O)[C@H]1O [STREPTOMYCIN] | 1 (≈ 1.72 µM) | 2 (≈ 3.44 µM) | 1 (≈ 1.72 µM) | 2 (≈ 3.44 µM) | – | – | – | – | – | –
CN(C)[C@@H]1C(O)=C(C(N)=O)C(=O)[C@@]2(O)C(O)=C3C(=O)c4c(O)cccc4[C@@](C)(O)[C@H]3C[C@@H]12 [TETRACYCLINE] | 0.5 (≈ 1.13 µM) | 1 (≈ 2.25 µM) | 0.5 (≈ 1.13 µM) | 1 (≈ 2.25 µM) | – | – | – | – | – | –
GENTAMICIN | – | – | – | – | – | – | 0.06 | 0.12 | 0.12 | 0.25

— ChEMBL document CHEMBL1255369, “In vitro susceptibility of isolates of Francisella tularensis types A and B from North America” (2008)
